Values quoted from earlier work as cited in patent US12070523B2, “Sanitization of an article using in situ electrolysis” (APPLIED BIOCIDE GMBH, priority 2022, dated 2024).

Compound: [O-][Cl+2]([O-])O [chlorate]
- ADI (allowable daily intake) (as ClO3^−): 0.0024 mg/kg BW·day
- Maximum residue level (MRL), smallest MRL used as worst-case (chronic exposure, Commission Regulation (EU) 2020/749): 0.05 mg/kg BW·day
